Earlier results in patent US20090029020A1, “CYCLODEXTRIN INCLUSION COMPLEXES AND METHODS OF PREPARING SAME” (CARGILL, INCORPORATED, priority 2005, published 2009).
Like-named read-outs stand apart in the source and are kept apart here. Residues, ends and D or L forms follow the SMILES beside them.

Details: octanol/water partition coefficient

| log P (Table 1A) | log P (Table 9) | SMILES |
| --- | --- | --- |
| 4.10 | 4.10 | Cc1ccc(C(C)C)cc1 [p-cymene] |
| −3.72 | −3.72 | CN(CC(=O)O)C(=N)N [creatine] |
| −0.18 | −0.18 | CCOC(=O)C(C)O (stereo not drawn) [ethyl lactate] |
| 0.82 | 0.82 | CC1=C(O)C(=O)C(C)O1 (stereo not drawn) [furaneol] |
| −2.15 | −2.15 | O=C(O)[C@@H]1CCCN1 [proline] |
| 1.48 | 1.48 | CC(=O)CCc1ccc(O)cc1 [raspberry ketone] |
| 0.07 | 0.07 | COC(=O)[C@H](Cc1ccccc1)NC(=O)[C@@H](N)CC(=O)O [aspartame] (H-Asp-Phe-OMe) |
| −0.74 | −0.74 | CO [methanol] |
| −0.19 | −0.19 | Cc1occc(=O)c1O [maltol] |
| 1.77 | 1.77 | CCOC(=O)C(C)C [ethyl isobutyrate] |
| 0.29 | 0.29 | CCOC(=O)CCC(C)=O [ethyl levulinate] |
| 2.26 | 2.26 | CCOC(=O)CC(C)C [ethyl isovalerate] |
| −1.34 | −1.34 | CC(=O)C(C)=O [diacetyl] |
| 1.50 | 1.50 | CCOc1cc(C=O)ccc1O [ethyl vanillin] |
|  | 3.38 | C=CC(C)(O)CCC=C(C)C (stereo not drawn) [linalool] |
| 3.36 | 3.36 | ClC1CCCCC1 [chlorocyclohexane (CCH), chlorocyclohexane] |
| 0.30 | 0.30 | CCc1occc(=O)c1O [ethyl maltol] |
| 0.92 | 0.92 | CSC [dimethyl sulfide] |
| −0.17 | −0.17 | CC=O [acetaldehyde] |

| SMILES | log P (Table 1A) | log P (Table 9) |
| --- | --- | --- |
| C=C(C)[C@H]1CC=C(C)CC1 [limonene] | 4.83 | 4.83 |
